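Assay format: 96-well plates, 48-hour exposure. GI50 is the concentration that inhibits growth by half.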 The source made the active and inactive calls. Cut-off read from the data, not from the text of the source: active = GI50 up to about 1.1 µM and inactive = higher.
Key:
Test in all cases: NCI anticancer screen, dose series, 48 h
[1] = system: A498
[2] = system: A549
[3] = system: CAKI-1
[4] = system: CCRF-CEM
[5] = system: COLO 205
[6] = system: DMS-273
[7] = system: HL-60
[8] = system: HOP-18
[9] = system: HOP-92
[10] = system: IGROV-1
[11] = system: K562
[12] = system: LOX IMVI
[13] = system: MOLT-4
[14] = system: NCI-H522
[15] = system: OVCAR-8
[16] = system: RPMI-8226
[17] = system: RXF 393
[18] = system: SF-295
[19] = system: SK-MEL-28
[20] = system: SK-MEL-5
[21] = system: SK-OV-3
[22] = system: SR
[23] = system: SW-620
[24] = system: UO-31
[25] = system: 786-0
[26] = system: ACHN
[27] = system: DLD-1
[28] = system: DMS-114
[29] = system: EKVX
[30] = system: HCC 2998
[31] = system: HCT-116
[32] = system: HCT-15
[33] = system: HOP-62
[34] = system: HT-29
[35] = system: KM-20L2
[36] = system: KM12
[37] = system: LXFL 529
[38] = system: M14
[39] = system: M19-MEL
[40] = system: Malme-3M
[41] = system: NCI-H226
[42] = system: NCI-H23
[43] = system: NCI-H460
[44] = system: OVCAR-3
[45] = system: OVCAR-4
[46] = system: OVCAR-5
[47] = system: SF-268
[48] = system: SF-539
[49] = system: SK-MEL-2
[50] = system: SN12C
[51] = system: SNB-19
[52] = system: SNB-75
[53] = system: SNB-78
[54] = system: TK-10
[55] = system: U-251
[56] = system: UACC-257
[57] = system: UACC-62
[58] = system: XF498

Measured: GI50

Cc1ccc2nc3c(Cl)c(C)c(=O)cc-3sc2c1
inactive: [1] > 100 µM | [2] 70.5 µM | [3] > 10 µM | [4] 7.18 µM | [5] > 10 µM | [6] 76 µM | [7] 26.4 µM | [8] > 10 µM | [9] 64 µM | [10] > 10 µM | [11] 26.9 µM | [12] 42.1 µM | [13] 10.7 µM | [14] 35.3 µM | [15] 51.1 µM | [16] 23 µM | [17] 21.5 µM | [18] 41.2 µM | [19] > 10 µM | [20] 60.3 µM | [21] > 10 µM | [22] > 10 µM | [23] 83.4 µM | [24] 52.5 µM

N=C1SCCS1
> 100 µM: [32]
inactive: [25] > 100 µM | [2] > 100 µM | [26] > 100 µM | [3] > 100 µM | [4] > 100 µM | [5] > 100 µM | [27] > 100 µM | [28] > 100 µM | [29] > 100 µM | [30] > 100 µM | [31] > 100 µM | [7] > 100 µM | [33] > 100 µM | [9] 59 µM | [34] > 100 µM | [10] > 100 µM | [11] > 100 µM | [35] > 100 µM | [36] > 100 µM | [12] > 100 µM | [37] > 100 µM | [38] > 100 µM | [39] > 100 µM | [13] > 100 µM | [40] > 100 µM | [41] > 100 µM | [42] > 100 µM | [43] > 100 µM | [14] > 100 µM | [44] > 100 µM | [45] > 100 µM | [46] > 100 µM | [15] > 100 µM | [16] > 100 µM | [47] > 100 µM | [18] > 100 µM | [48] > 100 µM | [19] > 100 µM | [49] > 100 µM | [20] > 100 µM | [21] > 100 µM | [50] > 100 µM | [51] > 100 µM | [52] 36.2 µM | [53] > 100 µM | [23] > 100 µM | [54] > 100 µM | [55] > 100 µM | [56] > 100 µM | [57] > 100 µM | [24] > 100 µM | [58] > 100 µM

COc1cc(/C=C(\C#N)C(=O)c2ccccc2)ccc1O
inactive: [25] > 100 µM | [1] > 100 µM | [2] > 100 µM | [26] > 100 µM | [3] > 100 µM | [4] 82.8 µM | [5] > 100 µM | [29] > 100 µM | [30] > 100 µM | [31] > 100 µM | [7] 46.6 µM | [33] > 100 µM | [34] > 100 µM | [10] > 100 µM | [11] > 100 µM | [35] > 100 µM | [36] > 100 µM | [12] > 100 µM | [37] > 100 µM | [38] > 100 µM | [39] > 100 µM | [13] > 100 µM | [40] > 100 µM | [41] > 100 µM | [42] > 100 µM | [43] > 100 µM | [14] > 100 µM | [44] 34.4 µM | [45] > 100 µM | [46] > 100 µM | [15] > 100 µM | [16] > 100 µM | [47] > 100 µM | [18] > 100 µM | [48] > 100 µM | [19] > 100 µM | [49] > 100 µM | [20] > 100 µM | [21] > 100 µM | [50] > 100 µM | [51] > 100 µM | [53] > 100 µM | [22] > 100 µM | [23] > 100 µM | [54] > 100 µM | [55] > 100 µM | [56] > 100 µM | [57] > 100 µM | [24] > 100 µM | [58] > 100 µM
> 100 µM: [32]

From ChEMBL document CHEMBL1201862, “PubChem BioAssay data set” (2004)
